The target of this experiment is T1, ΔF508-CFTR (Homo sapiens, UniProt P13569, DEL508-508).
T1 construct: expressed in transfected cells
Nature of the experiment: Membrane potential optical assay (FRET voltage-sensor dyes, VIPR), identification of potentiator compounds. It counts as cell-based. The settings on record: Table 3, assay not given; for Emax: read-out: % Activity (% Efficacy, relative efficacy). In outline:
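Potentiator screen measured membrane potential via FRET between CC2-DMPE donor and DiSBAC2(3), read on VIPR II. Compound went in with the first addition of chloride-free gluconate bath; cells were ΔF508-CFTR-expressing NIH3T3 mouse fibroblasts, temperature-corrected at 27 °C for 24 h.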

Structures are written as SMILES. Bounds are passed on as bounds.

T1 sequence (P13569 with tags, fused parts or gaps DEL508-508): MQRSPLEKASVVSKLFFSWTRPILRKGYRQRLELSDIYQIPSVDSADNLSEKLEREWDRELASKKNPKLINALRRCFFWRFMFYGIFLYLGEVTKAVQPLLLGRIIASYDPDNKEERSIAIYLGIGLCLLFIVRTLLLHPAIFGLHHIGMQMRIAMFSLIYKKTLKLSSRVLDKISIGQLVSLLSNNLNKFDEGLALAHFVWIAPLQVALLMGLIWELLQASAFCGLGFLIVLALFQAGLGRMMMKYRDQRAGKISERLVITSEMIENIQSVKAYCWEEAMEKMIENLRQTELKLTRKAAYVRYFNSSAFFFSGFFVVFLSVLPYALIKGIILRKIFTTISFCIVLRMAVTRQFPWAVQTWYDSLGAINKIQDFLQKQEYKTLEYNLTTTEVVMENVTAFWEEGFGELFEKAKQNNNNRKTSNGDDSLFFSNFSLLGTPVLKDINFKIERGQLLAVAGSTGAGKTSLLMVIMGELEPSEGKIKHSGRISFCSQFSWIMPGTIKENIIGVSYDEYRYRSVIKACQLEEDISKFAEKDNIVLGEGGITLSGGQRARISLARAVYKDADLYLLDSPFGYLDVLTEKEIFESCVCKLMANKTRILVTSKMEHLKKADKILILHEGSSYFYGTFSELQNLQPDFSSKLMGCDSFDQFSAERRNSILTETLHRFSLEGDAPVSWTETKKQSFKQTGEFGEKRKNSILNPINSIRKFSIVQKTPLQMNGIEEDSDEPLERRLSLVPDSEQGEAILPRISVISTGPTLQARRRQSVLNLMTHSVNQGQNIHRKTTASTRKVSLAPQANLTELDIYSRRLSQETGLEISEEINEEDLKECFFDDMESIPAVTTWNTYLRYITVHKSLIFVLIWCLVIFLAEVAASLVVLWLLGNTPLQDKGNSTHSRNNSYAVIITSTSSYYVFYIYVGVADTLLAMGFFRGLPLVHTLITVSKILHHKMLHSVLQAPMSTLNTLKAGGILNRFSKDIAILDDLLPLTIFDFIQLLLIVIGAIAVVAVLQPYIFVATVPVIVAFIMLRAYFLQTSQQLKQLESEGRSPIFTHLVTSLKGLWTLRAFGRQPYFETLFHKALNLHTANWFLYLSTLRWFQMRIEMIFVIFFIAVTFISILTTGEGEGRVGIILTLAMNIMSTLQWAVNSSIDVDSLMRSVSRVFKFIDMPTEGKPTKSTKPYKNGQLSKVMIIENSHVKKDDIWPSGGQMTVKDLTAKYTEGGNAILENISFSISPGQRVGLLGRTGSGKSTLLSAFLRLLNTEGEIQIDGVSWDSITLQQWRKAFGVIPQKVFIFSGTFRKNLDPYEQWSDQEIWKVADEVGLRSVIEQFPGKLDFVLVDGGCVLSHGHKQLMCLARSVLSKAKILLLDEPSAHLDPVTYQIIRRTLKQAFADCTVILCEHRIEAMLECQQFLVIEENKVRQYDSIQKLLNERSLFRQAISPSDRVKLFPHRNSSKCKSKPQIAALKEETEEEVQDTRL

As for `COC(=O)Nc1ccc(C(C)C)c(NC(=O)c2c[nH]c3ccccc3c2=O)c1` [Compound 239, [4-isopropyl-3-[(4-oxo-1H-quinolin-3-yl)carbonylamino]phenyl]aminoformic acid methyl ester], the Emax was 25 to 100%.

In the case of `O=C(Nc1ccccc1OCc1ccccc1)c1c[nH]c2ccccc2c1=O` [Compound 240, N-(2-benzyloxyphenyl)-4-oxo-1H-quinoline-3-carboxamide], the Emax lay in the range of 25 to 100%. With `O=C(Nc1cccc2cccnc12)c1c[nH]c2ccccc2c1=O` [Compound 241, 4-oxo-N-(8-quinolyl)-1H-quinoline-3-carboxamide], the Emax fell in the range of 25 to 100%. Same read-out and setting: for `Nc1cc(NC(=O)c2c[nH]c3ccccc3c2=O)c(Cl)cc1Cl` [Compound 242, N-(5-amino-2,4-dichloro-phenyl)-4-oxo-1H-quinoline-3-carboxamide] the value was 25 to 100%. In the case of `CC(=O)Nc1ccc(C(C)C)c(NC(=O)c2c[nH]c3ccccc3c2=O)c1` [Compound 243, N-(5-acetylamino-2-isopropyl-phenyl)-4-oxo-1H-quinoline-3-carboxamide], the EC50 fell in the range of 10 to 25 µM and the Emax lay in the range of 25 to 100%.

Turning to `O=C(Nc1ccc2c3c([nH]c2c1)CCCC3)c1c[nH]c2ccccc2c1=O` [Compound 244, 4-oxo-N-(6,7,8,9-tetrahydro-5H-carbazol-2-yl)-1H-quinoline-3-carboxamide], the Emax fell in the range of 25 to 100%. Take `O=C(Nc1ccccc1Oc1ccc(Cl)cc1Cl)c1c[nH]c2ccccc2c1=O` [Compound 245, N-[2-(2,4-dichlorophenoxy)phenyl]-4-oxo-1H-quinoline-3-carboxamide]: the Emax fell in the range of 25 to 100%. Take `Cc1ccc(NC(=O)c2c[nH]c3ccccc3c2=O)cc1C` [Compound 246, N-(3,4-dimethylphenyl)-4-oxo-1H-quinoline-3-carboxamide]: the Emax lay within 25 to 100%.

Regarding `O=C(Nc1ccccc1-c1ccccc1Oc1ccccc1)c1c[nH]c2ccccc2c1=O` [Compound 247, 4-oxo-N-[2-(2-phenoxyphenyl)phenyl]-1H-quinoline-3-carboxamide], the Emax is 25 to 100%. The same measure, in the same setting: the value for `CC(=O)Nc1cc(NC(=O)c2c[nH]c3ccccc3c2=O)ccc1C` [Compound 248, N-(3-Acetylamino-4-methyl-phenyl)-4-oxo-1H-quinoline-3-carboxamide] was 25 to 100%; that for `CCc1ccc(NC(=O)OC)cc1NC(=O)c1c[nH]c2ccccc2c1=O` [Compound 249, [4-ethyl-3-[(4-oxo-1H-quinolin-3-yl)carbonylamino]phenyl]aminoformic acid methyl ester] was 25 to 100%; that for `COc1ccc(NC(C)=O)cc1NC(=O)c1c[nH]c2ccccc2c1=O` [Compound 250, N-(5-acetylamino-2-methoxy-phenyl)-4-oxo-1H-quinoline-3-carboxamide] was < 25%. `CC(C)COC(=O)NCC(C)(C)c1ccc(NC(=O)c2c[nH]c3ccccc3c2=O)cc1` [Compound 251, [2-methyl-2-[4-[(4-oxo-1H-quinolin-3-yl)carbonylamino]phenyl]-propyl]aminoformic acid isobutyl ester]: the Emax fell in the range of 25 to 100%. On the same count and under the same terms, the value for `O=C(c1ccccc1)c1ccccc1NC(=O)c1c[nH]c2ccccc2c1=O` [Compound 252, N-(2-benzoylphenyl)-4-oxo-1H-quinoline-3-carboxamide] was 25 to 100%. Still for that read-out and setting: the value for `O=C(Nc1ccccc1-c1cccc(OC(F)(F)F)c1)c1c[nH]c2ccccc2c1=O` [Compound 253, 4-oxo-N-[2-[3-(trifluoromethoxy)phenyl]phenyl]-1H-quinoline-3-carboxamide] was 25 to 100%; that for `O=C(Nc1cc2[nH]ccc2cc1F)c1c[nH]c2ccc(F)cc2c1=O` [Compound 254, 6-fluoro-N-(5-fluoro-1H-indol-6-yl)-4-oxo-1H-quinoline-3-carboxamide] was 25 to 100%; that for `CC(C)(C)c1cc(C(C)(C)C)c(NC(=O)c2c[nH]c3ccc(S(=O)(=O)N4CCCC4)cc3c2=O)cc1O` [Compound 255, N-(5-hydroxy-2,4-ditert-butyl-phenyl)-4-oxo-6-pyrrolidin-1-ylsulfonyl-1H-quinoline-3-carboxamide] was 25 to 100%.

As to `O=C(Nc1ccc2[nH]nnc2c1)c1c[nH]c2ccccc2c1=O` [Compound 256, N-(1H-benzotriazol-5-yl)-4-oxo-1H-quinoline-3-carboxamide], the Emax is < 25%. On the same count and under the same terms, the value for `Cc1cc(NC(=O)c2c[nH]c3ccccc3c2=O)ccc1F` [Compound 257, N-(4-fluoro-3-methyl-phenyl)-4-oxo-1H-quinoline-3-carboxamide] was 25 to 100%; that for `O=C(Nc1ccc2c(c1)NCC2)c1c[nH]c2ccccc2c1=O` [Compound 258, N-Indolin-6-yl-4-oxo-1H-quinoline-3-carboxamide] was 25 to 100%. For the compound `CCC(C)c1c[nH]c2cc(NC(=O)c3c[nH]c4ccccc4c3=O)ccc12` (centres unmarked) [Compound 259, 4-oxo-N-(3-sec-butyl-1H-indol-6-yl)-1H-quinoline-3-carboxamide], the Emax was in the range of 25 to 100%. Still for that read-out and setting: the value for `CC(C)(C)c1ccc(N)cc1NC(=O)c1c[nH]c2ccccc2c1=O` [Compound 260, N-(5-Amino-2-tert-butyl-phenyl)-4-oxo-1H-quinoline-3-carboxamide] was 25 to 100%; that for `Cc1ccc(-c2ccccc2NC(=O)c2c[nH]c3ccccc3c2=O)cc1C` [Compound 261, N-[2-(3,4-dimethylphenyl)phenyl]-4-oxo-1H-quinoline-3-carboxamide] was 25 to 100%; that for `O=C1CSc2ccc(NC(=O)c3c[nH]c4ccccc4c3=O)cc2N1` [Compound 262, 1,4-dihydro-N-(3,4-dihydro-3-oxo-2H-benzo[b][1,4]thiazin-6-yl)-4-oxoquinoline-3-carboxamide] was 25 to 100%. Regarding `CCc1cc(Br)ccc1NC(=O)c1c[nH]c2ccccc2c1=O` [Compound 263, N-(4-bromo-2-ethyl-phenyl)-4-oxo-1H-quinoline-3-carboxamide], the Emax fell in the range of 25 to 100%.

Take `CCOc1ccc(OCC)c(NC(=O)c2c[nH]c3ccccc3c2=O)c1` [Compound 264, N-(2,5-diethoxyphenyl)-4-oxo-1H-quinoline-3-carboxamide]: the Emax lay in the range of 25 to 100%. In the case of `O=C(Nc1ccccc1Cc1ccccc1)c1c[nH]c2ccccc2c1=O` [Compound 265, N-(2-benzylphenyl)-4-oxo-1H-quinoline-3-carboxamide], the Emax fell in the range of 25 to 100%.

Take `CC(C)(C)c1cc(C(F)(F)F)c(NC(=O)c2c[nH]c3ccccc3c2=O)cc1O` [Compound 266, N-[5-hydroxy-4-tert-butyl-2-(trifluoromethyl)phenyl]-4-oxo-1H-quinoline-3-carboxamide]: the Emax lay within 25 to 100%. As for `O=C(Nc1ccc(Oc2ccccc2)cc1)c1c[nH]c2ccccc2c1=O` [Compound 267, 4-oxo-N-(4-phenoxyphenyl)-1H-quinoline-3-carboxamide], the Emax was in the range of 25 to 100%. The same measure, in the same setting: for `CC(C)(C)c1ccc(NC(=O)c2c[nH]c3ccccc3c2=O)cc1S(N)(=O)=O` [Compound 268, 4-oxo-N-(3-sulfamoyl-4-tert-butyl-phenyl)-1H-quinoline-3-carboxamide] the value was 25 to 100%; for `CCOC(=O)Nc1ccc(C(C)C)c(NC(=O)c2c[nH]c3ccccc3c2=O)c1` [Compound 269, [4-isopropyl-3-[(4-oxo-1H-quinolin-3-yl)carbonylamino]phenyl]aminoformic acid ethyl ester], 25 to 100%.

For `N#Cc1cc2ccc(NC(=O)c3c[nH]c4ccccc4c3=O)cc2[nH]1` [Compound 270, N-(2-cyano-1H-indol-6-yl)-4-oxo-1H-quinoline-3-carboxamide], the Emax was in the range of 25 to 100%. Turning to `CC(C)(C)c1ccc(NC(=O)c2c[nH]c3ccccc3c2=O)cc1N` [Compound 271, N-(3-amino-4-tert-butyl-phenyl)-4-oxo-1H-quinoline-3-carboxamide], the Emax was in the range of 25 to 100%. Regarding `O=C(Nc1cc(NS(=O)(=O)CCN2CCOCC2)cc(C(F)(F)F)c1)c1c[nH]c2ccccc2c1=O` [Compound 272, N-[3-(2-morpholinoethylsulfonylamino)-5-(trifluoromethyl)phenyl]-4-oxo-1H-quinoline-3-carboxamide], the Emax was 25 to 100%. As for `CC(C)(C)OC(=O)NC1CCCc2ccc(NC(=O)c3c[nH]c4ccccc4c3=O)cc21` (centres unmarked) [Compound 273, [7-[(4-oxo-1H-quinolin-3-yl)carbonylamino]tetralin-1-yl]aminoformic acid tert-butyl ester], the Emax was > 100%.

Consider `CC(C)(C)c1cc2cc[nH]c2cc1NC(=O)c1c[nH]c2ccc(S(=O)(=O)N3CCCC3)cc2c1=O` [Compound 274, 4-oxo-6-pyrrolidin-1-ylsulfonyl-N-(5-tert-butyl-1H-indol-6-yl)-1H-quinoline-3-carboxamide], for which the Emax fell in the range of 25 to 100%. Consider `CC(C)(C)c1ccc(NC(=O)c2cnc3ccccc3c2OCc2ccccc2)cc1O` [Compound 275, 4-Benzyloxy-N-(3-hydroxy-4-tert-butyl-phenyl)-quinoline-3-carboxamide], for which the Emax lay within 25 to 100%. Same read-out and setting: for `O=C(Nc1ccc(S(=O)(=O)N2CCOCC2)cc1)c1c[nH]c2ccccc2c1=O` [Compound 276, N-(4-morpholinosulfonylphenyl)-4-oxo-1H-quinoline-3-carboxamide] the value was 25 to 100%. For `O=C(Nc1ccccc1-c1cccc(F)c1)c1c[nH]c2ccccc2c1=O` [Compound 277, N-[2-(3-fluorophenyl)phenyl]-4-oxo-1H-quinoline-3-carboxamide], the EC50 was < 10 µM and the Emax is > 100%. As to `O=C(Nc1ccccc1-c1cccc(C(F)(F)F)c1)c1c[nH]c2ccccc2c1=O` [Compound 278, 4-oxo-N-[2-[3-(trifluoromethyl)phenyl]phenyl]-1H-quinoline-3-carboxamide], the Emax fell in the range of 25 to 100%. With `CSc1ccccc1-c1ccccc1NC(=O)c1c[nH]c2ccccc2c1=O` [Compound 279, N-[2-(2-methylsulfanylphenyl)phenyl]-4-oxo-1H-quinoline-3-carboxamide], the EC50 was < 10 µM and the Emax fell in the range of 25 to 100%.

As a reminder, the EC50 is the concentration at which the effect is half-maximal.

These data come from patent US8802700B2 (Vertex Pharmaceuticals Incorporated, priority 2010, dated 2014).
